Data published in the supplement of paper PMC11208160.

Assay: recombinant UMI read abundance after kanamycin selection (control-corrected) (log10(CPM+1)); higher = more efficient recombination; extreme values may be limits of the assay; sequences stand for … in AGTGCAGAGAAAATCGGCCAGTTTTCTCTGCCTGCAGTCCGCATGCCGTGGGACCCCTTGGGTTCTAACCTGTTGCCTAGATTTATGCAGCGGACTGCCTTTCTCCCAAAGTGATAAACCGG…AGGTTGGTTTCACT; site = the 11-nt donor
Procedure, shortened: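 After plating on IPTG (0.07 mM) plus kanamycin, or unselected, in two replicates, recombinant UMIs were PCR-amplified across the donor–target junction and sequenced. The cells were Escherichia coli co-electroporated with a UMI-tagged donor and donor-binding-loop pair library and a target plasmid with a fixed target and T7-inducible IS621 bridge recombinase. Values are log10(CPM+1), with CPM averaged over replicates and scaled by control-derived factors.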
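Further: IS621 bridge recombinase in Escherichia coli cells against a fixed T5 target plasmid.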

Sequence	recombinant UMI read abundance (log10)
AACCTTCCATGGACCGGTTTTCCCGGTAATCCGTATTTGAT (site AACCCTCCTAT)	0.0165
AGGACTTCATGGACCGGTTTTCCCGGTAATCCGTATTTGAC (site AGGACTGCTGT)	0
CACTTGACATGGACCGGTTTTCCCGGTAATCCGTATTTGGA (site CACTTGACTTC)	0.194
CGTTAGACATGGACCGGTTTTCCCGGTAATCCGTATTTGCG (site CGTTAGACTCT)	0.911
GATGCAGCATGGACCGGTTTTCCCGGTAATCCGTATTTGTT (site GATGCAGCTAA)	0.749
ACAGGACCATGGACCGGTTTTCCCGGTAATCCGTATTTGCA (site ACAGGACCTTG)	0
GACAAACCATGGACCGGTTTTCCCGGTAATCCGTATTTGGA (site GACAAACCTAC)	0.0269
CACAGGTCATGGACCGGTTTTCCCGGTAATCCGTATTTGAT (site CACAGGTCTAT)	2.14
CAGTCGTCATGGACCGGTTTTCCCGGTAATCCGTATTTGGG (site CAGTCGTCTCC)	0.348
ACAGTAACATGGACCGGTTTTCCCGGTAATCCGTATTTGGA (site ACAGTATCTTG)	0
CGCTTCTCATGGACCGGTTTTCCCGGTAATCCGTATTTGGG (site CCCTTCTCTCC)	0.0589
AACTCATCATGGACCGGTTTTCCCGGTAATCCGTATTTGAA (site AACTCATCTTT)	1.19
GGAGGGCCATGGACCGGTTTTCCCGGTAATCCGTATTTGGC (site GGAGGGCCTGC)	0
CCAGGTGCATGGACCGGTTTTCCCGGTAATCCGTATTTGAC (site CCAGGTGCTTT)	0.00791
AAGTAACCATGGACCGGTTTTCCCGGTAATCCGTATTTGGA (site AAGTAACCTTC)	0.105
AATGTAACATGGACCGGTTTTCCCGGTAATCCGTATTTGCC (site AATGTAACTGG)	2.15
TCGTCACCATGGACCGGTTTTCCCGGTAATCCGTATTTGTG (site TCGTCACCTCA)	0.0129
ACCTGGACATGGACCGGTTTTCCCGGTAATCCGTATTTGCA (site ACCTGGACTTG)	1.82
GTAAGCACATGGACCGGTTTTCCCGGTAATCCGTATTTGTA (site GTAAGCACTTA)	2.03
GGCAATCCATGGACCGGTTTTCCCGGTAATCCGTATTTGTA (site GGCAATCCTTA)	0.264
CCCGGACCATGGACCGGTTTTCCCGGTAATCCGTATTTGCA (site CCCGGACCTTG)	0
TTACCTGCATGGACCGGTTTTCCCGGTAATCCGTATTTGTG (site TTATCTGCTCA)	0.00944
CAAGCAGCATGGACCGGTTTTCCCGGTAATCCGTATTTGCG (site CAAGCAGCTAG)	1.9
CGGCCATCATGGACCGGTTTTCCCGGTAATCCGTATTTGCT (site CGGCCATCTAG)	1.29
TGGCATACATGGACCGGTTTTCCCGGTAATCCGTATTTGTA (site TGGCATACTTA)	0.751

Sequence	recombinant UMI read abundance (log10)
AGCTCCGCATGGACCGGTTTTCCCGGTAATCCGTATTTGGG (site AGCTCCGCTCC)	0.211
CCTAATACATGGACCGGTTTTCCCGGTAATCCGTATTTGGC (site CCTAAGACTGC)	0
CCAGTGACATGGACCGGTTTTCCCGGTAATCCGTATTTGGT (site CCAGTGACTAC)	0
CAAGCAGCATGGACCGGTTTTCCCGGTAATCCGTATTTGTT (site CAAGCAGCTAA)	1.83
TCAGTATCATGGACCGGTTTTCCCGGTAATCCGTATTTGTA (site ACAGTATCTTG)	0.377
GCTCGTTCATGGACCGGTTTTCCCGGTAATCCGTATTTGAT (site GCTCGTTCTAT)	1.25
GCGCTGGCATGGACCGGTTTTCCCGGTAATCCGTATTTGCG (site GCGCTGGCTCG)	0.891
TAAAGGCCATGGACCGGTTTTCCCGGTAATCCGTATTTGTA (site TAAAGCCCTTA)	0.00872
GCTCCAACATGGACCGGTTTTCCCGGTAATCCGTATTTGTA (site GTTCCAACTTA)	0.481
CAATTCCCATGGACCGGTTTTCCCGGTAATCCGTATTTGCT (site CATTTCCCTAG)	0
ACGTTCCCATGGACCGGTTTTCCCGGTAATCCGTATTTGTG (site AAGTTCCCTCA)	0.0189
TAGAAGACATGGACCGGTTTTCCCGGTAATCCGTATTTGCA (site TAGAACACTTG)	0.985
CAAGCAGCATGGACCGGTTTTCCCGGTAATCCGTATTTGCT (site CCAGCAGCTAG)	0.00438
TTTGCGGCATGGACCGGTTTTCCCGGTAATCCGTATTTGCT (site TGTGCGGCTAG)	0.0128
CAATGCCCATGGACCGGTTTTCCCGGTAATCCGTATTTGCT (site CAATCCCCTAG)	0.246
TTCGGTGCATGGACCGGTTTTCCCGGTAATCCGTATTTGCC (site TTCGGTGCTGG)	0
CAAGGCTCATGGACCGGTTTTCCCGGTAATCCGTATTTGAA (site CAAGGCTCTTT)	2.71
CTCGACACATGGACCGGTTTTCCCGGTAATCCGTATTTGCT (site CTCAACACTAG)	1.72
CGTCTCTCATGGACCGGTTTTCCCGGTAATCCGTATTTGTA (site CGTCTCTCTTA)	2.64
TCACACTCATGGACCGGTTTTCCCGGTAATCCGTATTTGCA (site TCATACTCTTG)	1.85
AGGTCAGCATGGACCGGTTTTCCCGGTAATCCGTATTTGAT (site AGGTCAGCTAT)	1.84
CAGAATCCATGGACCGGTTTTCCCGGTAATCCGTATTTGAT (site CGGAATCCTAA)	0
TAATGAGCATGGACCGGTTTTCCCGGTAATCCGTATTTGGT (site TAATGAGCTAC)	0.862
CGAGTACCATGGACCGGTTTTCCCGGTAATCCGTATTTGGG (site CGAGTACCTCC)	0.0186
TATTTGGCATGGACCGGTTTTCCCGGTAATCCGTATTTGGG (site TATTTGGCTCG)	0.0185

Sequence	recombinant UMI read abundance (log10)
TCACACACATGGACCGGTTTTCCCGGTAATCCGTATTTGAT (site TCACACACTAT)	1.33
TCATTCTCATGGACCGGTTTTCCCGGTAATCCGTATTTGCA (site TCATACTCTTG)	1.25
AGCTCAGCATGGACCGGTTTTCCCGGTAATCCGTATTTGGG (site AGTTCAGCTCC)	0.0207
TACCGTCCATGGACCGGTTTTCCCGGTAATCCGTATTTGAT (site AACCGTCCTAT)	0.0188
CGGTATCCATGGACCGGTTTTCCCGGTAATCCGTATTTGTT (site CGGCATCCTAA)	0.493
TTAGCAGCATGGACCGGTTTTCCCGGTAATCCGTATTTGTG (site TTAGCGGCTCA)	0.0104
AAGTACGCATGGACCGGTTTTCCCGGTAATCCGTATTTGGG (site AAGCACGCTCC)	0.0289
GGTCCTACATGGACCGGTTTTCCCGGTAATCCGTATTTGTA (site GGTCCTACTTA)	0.0187
TGTTCCTCATGGACCGGTTTTCCCGGTAATCCGTATTTGTA (site TGTTCCACTTA)	0.0142
TACTTGACATGGACCGGTTTTCCCGGTAATCCGTATTTGCT (site TCCTTGACTAG)	0.255
ATAAAGGCATGGACCGGTTTTCCCGGTAATCCGTATTTGGG (site ATAAAGGCTCC)	1.03
ACATGAACATGGACCGGTTTTCCCGGTAATCCGTATTTGAG (site ACATGAACTCT)	2.07
CTGGAAACATGGACCGGTTTTCCCGGTAATCCGTATTTGAA (site CTGGAAACTTG)	0
TAGCAAGCATGGACCGGTTTTCCCGGTAATCCGTATTTGAA (site TAGCGAGCTTT)	0.00665
GAGCTCACATGGACCGGTTTTCCCGGTAATCCGTATTTGAT (site GAGCTCGCTAT)	0.318
CGATCACCATGGACCGGTTTTCCCGGTAATCCGTATTTGCT (site CGATCAGCTAG)	0
CCGTATACATGGACCGGTTTTCCCGGTAATCCGTATTTGCT (site CCGTATACTAG)	1.24
TCGCTAGCATGGACCGGTTTTCCCGGTAATCCGTATTTGGC (site TCGCTAGCTGC)	0
TATTTAGCATGGACCGGTTTTCCCGGTAATCCGTATTTGTG (site TATTTCGCTCA)	0.026
TCAGTGACATGGACCGGTTTTCCCGGTAATCCGTATTTGCG (site TCAGAGACTCG)	0.0602
CGGCGCCCATGGACCGGTTTTCCCGGTAATCCGTATTTGAG (site CGGCGCCCTCT)	0.00618
ACTGTATCATGGACCGGTTTTCCCGGTAATCCGTATTTGCA (site ACGGTATCTTG)	1.96
CAGTCCACATGGACCGGTTTTCCCGGTAATCCGTATTTGGG (site CAGTCTACTCC)	0
ATCTATGCATGGACCGGTTTTCCCGGTAATCCGTATTTGAC (site ATCTATACTGT)	2.11
CGCATACCATGGACCGGTTTTCCCGGTAATCCGTATTTGAC (site CGCATACCTGT)	0
